We go through 33 molecules from patent US20160045505A1, “COMPOUNDS AND COMPOSITIONS FOR THE TREATMENT OF PARASITIC DISEASES” (NOVARTIS AG, priority 2013, published 2016).

Like-named read-outs stand apart in the source and are kept apart here.

Assay [1] relates to Leishmania donovani axenic amastigote parasites. The assay can be described thus: Leishmania donovani axenic amastigote proliferation assay (Cell TiterGlo luminescence, 2 day incubation). Type of assay: cell-based. Conditions: read-out: L. donovani amastigotes EC50. On the technique in general: In ATP-based viability assays light output follows the ATP content of the culture.
Assay [2] concerns L. donovani HU3 strain in mouse peritoneal macrophages. The assay can be described thus: Assay for proliferation of Leishmania parasites in infected mouse peritoneal macrophages (SybrGreen staining, high-content imaging, 5 days). Type of assay: cell-based, Leishmania donovani. To be noted: L. donovani in mouse peritoneal macrophages, read-out: L. donovani Macrophage EC50.
Assay [3] relates to Trypanosoma brucei Lister 427 strain, bloodstream form. The assay can be described thus: Assay for proliferation of kinetoplastid parasite Trypanosoma brucei (Cell Titer Glo, 48 hours). Type of assay: cell-based. Conditions: T. brucei Lister 427 bloodstream form, read-out: T. brucei EC50. An excerpt:
Assay for Proliferation of Kinetoplastid Parasite Trypanosoma brucei.
The proliferation is quantified by the addition of Cell Titer Glo (Promega®) a luminescent cell viability assay that measures the number of viable cells in culture based on the quantification of cellular ATP amount, which is an indicator of metabolically active cells.
The following assay illustrates the invention without in any way limiting the scope of the invention. This parasite proliferation assay measures the increase in parasite growth using an assay that measures ATP activity, Cell Titer Glo®.
Trypanosoma brucei Lister 427 strain is grown in HMI-9 Trypanosome media for T. brucei bloodstream form. 30 μl of HMI-9 media is dispensed into 384 well assay plates. 200 nl of compounds of the invention (in DMSO), including anti-trypanosome controls (Pentamidine and suramin), are then transferred into the assay plates, as well as DMSO alone to serve as a negative control for inhibition. Then 25 μl of a suspension of T. brucei culture in HMI-9 media is dispensed into the assay plates. The final concentration of parasites in culture corresponds to 1.7% of 0.5 uM ATP activity with Cell Titer Glo® in HMI-9 media. The plates are placed in a 37° C. incubator for 48 hours in an atmospheric environment containing 5% CO2. 40 μl of Cell Titer Glo® is dispensed into the plates. The plates are then read for luminescence. The percentage inhibition of 50%, EC50, is calculated for each compound.

The mark [4] stands for this setting: Leishmania donovani, axenic amastigotes, inhibition of proliferation.
[5] abbreviates: Leishmania donovani, Peritoneal macrophage, inhibition of proliferation.
Where [6] appears, read: Trypanosoma brucei, inhibition of proliferation.
The mark [7] stands for this setting: Leishmania donovani, L. donovani axenic amastigotes.
Setting [8] is: Leishmania donovani, Peritoneal macrophage.

In the case of `CS(=O)(=O)Nc1ccc(F)c(-c2cn3cc(Br)cnc3n2)c1` [Compound 316, N-(3-(6-bromoimidazo[1,2-a]pyrimidin-2-yl)-4-Fluorophenyl)methanesulfonamide], the EC50 in assay [1] (setting [4]) is more than 25000 nM; in assay [2] (setting [5]) it was more than 50000 nM; in assay [3] (setting [6]), more than 50000 nM.
Turning to `Cc1nc(C)c(C(=O)Nc2cccc(-c3cn4cc(NC(=O)OC(C)C)cnc4n3)c2)o1` [Compound 22], the EC50 was found to be 1240 nM in assay [1] (setting [4]), 530 nM in assay [2] (setting [5]) and 384 nM in assay [3] (setting [6]).
Take `CC(C)OC(=O)Nc1cnc2nc(-c3cc(NC(=O)N4CCC(F)(F)C4)ccc3Cl)cn2c1` [Compound 4, isopropyl (2-(2-chloro-5-(3,3-difluoropyrrolidine-1-carboxamido)phenyl)imidazo[1,2-a]pyrimidin-6-yl)carbamate]: the EC50 was found to be 1340 nM in assay [1] (setting [4]), 2220 nM in assay [2] (setting [5]) and 2360 nM in assay [3] (setting [6]).
In the same order, the values of `COC(=O)Nc1ccc(-c2cnc3nc(-c4cc(NC(=O)c5ccc(C)o5)ccc4Cl)cn3c2)cc1` [Compound 27, methyl (4-(2-(2-chloro-5-(5-methylfuran-2-carboxamido)phenyl)imidazo[1,2-a]pyrimidin-6-yl)phenyl)carbamate] are 35 nM, 110 nM and 589 nM.
The matching figures for `CC(C)OC(=O)Nc1cnc2nc(-c3cccc(NC(=O)c4ccc(Cl)o4)c3)cn2c1` [Compound 18]: 410 nM, 172 nM and 56.8 nM.
With `CC(C)OC(=O)Nc1cnc2nc(-c3cccc(NC(=O)N(C)C)c3)cn2c1` [Compound 20], the EC50 in assay [1] (setting [4]) turned out to be 13400 nM; in assay [2] (setting [5]), 7900 nM; in assay [3] (setting [6]), 2000 nM.
In the case of `CCN(C)C(=O)Nc1ccc(F)c(-c2cn3cc(NC(=O)OC(C)C)cnc3n2)c1` [Compound 9], the results for the EC50 in assay [1] (setting [4]), in assay [2] (setting [5]) and in assay [3] (setting [6]) were 2480 nM, 1320 nM and 191 nM, respectively.
Take `CC(C)OC(=O)Nc1cnc2nc(-c3cc(NC(=O)N4CC(Cl)C4)ccc3F)cn2c1` [Compound 291]: the results for the EC50 in assay [1] (setting [4]), in assay [2] (setting [5]) and in assay [3] (setting [6]) were 390 nM, 968 nM and 206 nM, respectively.
In the same order, the values of `CON(C)C(=O)Nc1ccc(F)c(-c2cn3cc(NC(=O)OC(C)C)cnc3n2)c1` [Compound 221] are 249 nM, 1060 nM and 177 nM.
Take `CON(C)C(=O)Nc1cccc(-c2cn3cc(NC(=O)OC(C)C)cnc3n2)c1` [Compound 215]: the EC50 in assay [1] (axenic amastigotes, inhibition of proliferation) came out at 533 nM; in assay [2] (inhibition of proliferation) it was 1320 nM; in assay [3] (inhibition of proliferation), 181 nM.
`CNc1ccc(-c2cnc3nc(-c4cc(NC(=O)N5CCCC5)ccc4Cl)cn3c2)cc1` [Compound 26, N-(4-chloro-3-(6-(4-(methylamino)phenyl)imidazo[1,2-a]pyrimidin-2-yl)phenyl)pyrrolidine-1-carboxamide]: the EC50 was 57 nM in assay [1] (setting [4]), 104 nM in assay [2] (setting [5]) and 23.3 nM in assay [3] (setting [6]).
As to `CC(C)(C)OC(=O)Nc1cnc2nc(-c3cc(NC=O)ccc3F)cn2c1` [Compound 532, tert-butyl (2-(2-fluoro-5-formamidophenyl)imidazo[1,2-a]pyrimidin-6-yl)carbamate], the 50% effective concentration (EC50) is 13900 nM in assay [1] (setting [7]), more than 50000 nM in assay [2] (setting [8]) and 17800 nM in assay [3] (Trypanosoma brucei).
The matching figures for `CC(C)Nc1cnc2nc(-c3cc(NC(=O)N4CC(F)C4)ccc3F)cn2c1` [Compound 592]: 145 nM, 428 nM and 53 nM.
Regarding `CN1CCN(C(=O)Nc2ccc(F)c(-c3cn4cc(Br)cnc4n3)c2)CC1` [Compound 516], the EC50 in assay [1] (setting [7]) is more than 25000 nM; in assay [2] (setting [8]) it was 21000 nM; in assay [3] (Trypanosoma brucei) it was more than 50000 nM.
For `CNc1ccc(-c2cnc3nc(-c4cc(NC(=O)c5ccc(C)o5)ccc4Cl)cn3c2)cc1` [Compound 33, N-(4-chloro-3-(6-(4-(methylamino)phenyl)imidazo[1,2-a]pyrimidin-2-yl)phenyl)-5-methylfuran-2-carboxamide], the EC50 in assay [1] (setting [4]) came to 370 nM; in assay [2] (setting [5]), 660 nM; in assay [3] (setting [6]) it was 188 nM.
Turning to `Cc1cccnc1-c1cnc2nc(-c3cc(NC(=O)N4CC[C@@H](F)C4)ccc3F)cn2c1` [Compound 410], the results for the EC50 in assay [1] (setting [7]), in assay [2] (setting [8]) and in assay [3] (Trypanosoma brucei) were 22 nM, 65 nM and 17 nM, respectively.
`COC(=O)Nc1ccc(-c2cnc3nc(-c4cc(NC(=O)N5CCCC5)ccc4Cl)cn3c2)cc1` [Compound 24, methyl (4-(2-(2-chloro-5-(pyrrolidine-1-carboxamido)phenyl)imidazo[1,2-a]pyrimidin-6-yl)phenyl)carbamate]: the EC50 in assay [1] (setting [4]) worked out at 19.9 nM; in assay [2] (setting [5]), 57 nM; in assay [3] (setting [6]) it was 8.45 nM.
For `CCN(C)C(=O)Nc1cccc(-c2cn3cc(NC(=O)OC(C)C)cnc3n2)c1` [Compound 6], the EC50 in assay [1] (setting [4]) turned out to be 22300 nM; in assay [2] (setting [5]), 9200 nM; in assay [3] (setting [6]), 664 nM.
Consider `CC(C)Nc1ccc(F)c(-c2cn3cc(NC(=O)OC(C)C)cnc3n2)c1` [Compound 523], for which the figures for the EC50 in assay [1] (setting [7]), in assay [2] (setting [8]) and in assay [3] (Trypanosoma brucei) were more than 25000 nM, 37700 nM and more than 50000 nM, respectively.
`CCOC(=O)Nc1cccc(-c2cn3cc(NC(=O)OC(C)C)cnc3n2)c1` [Compound 10]: the EC50 was 2980 nM in assay [1] (setting [4]), 2360 nM in assay [2] (setting [5]) and 231 nM in assay [3] (setting [6]).
Take `CN(C)c1cnc2nc(-c3cc(NC(=O)N4CC(F)C4)ccc3F)cn2c1` [Compound 593]: the EC50 in assay [1] (setting [7]) was 255 nM; in assay [2] (setting [8]), 160 nM; in assay [3] (Trypanosoma brucei), 54 nM.
In the same order, the values of `Cc1cccnc1-c1cnc2nc(-c3cc(NC(=O)N4CC(F)(F)C4)ccc3F)cn2c1` [Compound 403] are 63 nM, 181 nM and 55 nM.
As to `O=C(Nc1ccc(Cl)c(-c2cn3cc(Cl)cnc3n2)c1)c1ccco1` [Compound 38], the figures for the EC50 in assay [1] (setting [4]), in assay [2] (setting [5]) and in assay [3] (setting [6]) were 5900 nM, 15600 nM and 1800 nM, respectively.
The matching figures for `CCN(CC)C(=O)Nc1cccc(-c2cn3cc(NC(=O)OC(C)C)cnc3n2)c1` [Compound 16]: more than 25000 nM, 14000 nM and 1640 nM.
`Cc1ccc(C(=O)Nc2cccc(-c3cn4cc(NC(=O)OC(C)C)cnc4n3)c2)o1` [Compound 13]: the values for the EC50 in assay [1] (setting [4]), in assay [2] (setting [5]) and in assay [3] (setting [6]) were 1720 nM, 810 nM and 181 nM, respectively.
The matching figures for `Cc1ccc(C(=O)Nc2ccc(Cl)c(-c3cn4cc(-c5ccccc5)cnc4n3)c2)o1` [Compound 31, N-(4-chloro-3-(6-phenylimidazo[1,2-a]pyrimidin-2-yl)phenyl)-5-methylfuran-2-carboxamide]: 169 nM, 243 nM and 67.7 nM.
For `COC(=O)Nc1ccc(F)c(-c2cn3cc(Br)cnc3n2)c1` [Compound 517], the results for the EC50 in assay [1] (setting [7]), in assay [2] (setting [8]) and in assay [3] (Trypanosoma brucei) were 4590 nM, more than 50000 nM and 1430 nM, respectively.
On to `CC(C)OC(=O)Nc1cccc(-c2cn3cc(NC(=O)OC(C)C)cnc3n2)c1` [Compound 21], for which the figures for the EC50 in assay [1] (setting [4]), in assay [2] (setting [5]) and in assay [3] (setting [6]) were 1970 nM, 1050 nM and 187 nM, respectively.
With `CN(CC(F)(F)F)C(=O)Nc1ccc(F)c(-c2cn3cc(Br)cnc3n2)c1` [Compound 586, 3-(3-(6-bromoimidazo[1,2-a]pyrimidin-2-yl)-4-fluorophenyl)-1-methyl-1-(2,2,2-trifluoroethyl)urea], the results for the EC50 in assay [1] (setting [7]), in assay [2] (setting [8]) and in assay [3] (Trypanosoma brucei) were 552 nM, 4000 nM and 59 nM, respectively.
As for `CC(C)OC(=O)Nc1cnc2nc(-c3cc(NC(=O)N4CC(C#N)C4)ccc3F)cn2c1` [Compound 290], the EC50 in assay [1] (setting [4]) is 3140 nM; in assay [2] (setting [5]), more than 45700 nM; in assay [3] (setting [6]), 12600 nM.
On to `O=C(Nc1ccc(Cl)c(-c2nc3ncc(-c4ccccc4)cn3c2F)c1)N1CCCC1` [Compound 39], for which the EC50 is more than 3400 nM in assay [1] (setting [4]), 180 nM in assay [2] (setting [5]) and 74.5 nM in assay [3] (setting [6]).
`CC(C)c1cnc2nc(-c3cc(N)ccc3F)cn2c1` [Compound 584, 4-fluoro-3-(6-isopropylimidazo[1,2-a]pyrimidin-2-yl)aniline]: the EC50 in assay [1] (setting [7]) is more than 25000 nM; in assay [2] (setting [8]) it was 2270 nM; in assay [3] (Trypanosoma brucei), more than 50000 nM.
Consider `CC(C)OC(=O)Nc1cnc2nc(-c3cccc(NC(=O)c4nccs4)c3)cn2c1` [Compound 11], for which the EC50 in assay [1] (setting [4]) was determined as 3800 nM; in assay [2] (setting [5]), 5000 nM; in assay [3] (setting [6]), 659 nM.

One may read the EC50 as the concentration needed to bring the measured effect to its halfway point.
